Test results reported in patent publication US5759573A, “Cyclodextrin liposomes encapsulating pharmacologic compounds and methods for their use” (DepoTech Corporation, priority 1995, dated 1998).

Tests used:
in vivo [1] = conditions: mouse, ip, 10 mg/kg
Procedure: (§4) The in vivo studies were done on male BDF1 mice weighing 18-25 g. […] The Emit^R assay is a homogeneous enzyme immunoassay technique based on the competition between drug present in the sample and drug labeled with the enzyme glucose-6-phosphate dehydrogenase for antibody binding sites. The limit of sensitivity was 0.02 μM.
(§5) Five μl of the peritoneal fluid samples were collected into a glass capillary pipette and diluted into 140 μl of 0.9% NaCl solution. […] Fifty μl of methanol was added to the pellet and vortexed to break multivesicular particles. The peritoneal cavities were then washed out thoroughly with 2-3 ml of 0.9% NaCl solution thrice. All samples were kept frozen at -20° C. until assayed by HPLC. Extraction of the samples was not necessary, no internal standard was used and there were no interfering peaks. RSTRIP computer program was used to analyze pharmacokinetic data. The area under the curve was determined by linear trapezoidal rule up to the last measured concentration and extrapolated to infinity.

[2] = cited from earlier work
L1210 leukemia [3] = assay: Efficacy of single subcutaneous dose in murine L1210 model (increased life span); assay type: in vivo, mouse (BDF1); conditions: L1210, single sc dose on Day 1, increased life span
Description: BDF1 and DBA/2J mice were from Simonsen Laboratories, Gilroy, Calif. The L1210 leukemia was maintained by serial intraperitoneal passage in DBA/2J female mice.
(§1) Five animals were in each group except for the control (given 0.9% NaCl alone), where 10 animals were used. […] Median survival time was used to calculate the "increased life span" (ILS) according to the formula: […]
where T is the median survival time of treated groups and C is the median survival time for control groups.
(§2) The LD50 was calculated after probit transformation.

[4] = Subcutaneous pharmacokinetics in BDF1 mice; conditions: mouse, 10 mg/kg sc
Procedure: (§6) Subcutaneous (sc) pharmacokinetic studies were done using male BDF1 mice, weighing 20-25 grams. […] At each time point, 3 animals were sacrificed.
(§7) A full thickness of the abdominal wall tissue, including the entire skin and the underlying peritoneal membrane, was then excised from the costal margin to the inguinal area and from one flank to the other. The entire tissue specimen was homogenized after addition of at least 20 ml of distilled water with a Polytron homogenizer. The homogenate was sonicated for 60 seconds at a maximum setting with a Biosonic IV probe sonicator and filtered through a YMT ultrafiltration membrane (Amicon Corp, product #4104). All the samples were kept at -20° C. until assayed by HPLC. The RSTRIP program was used to perform the curve fitting. AUC was determined by linear trapezoidal rule up to the last measured concentration and extrapolated to infinity.

L1210 leukemia [5] = assay: Efficacy of single intraperitoneal dose in murine L1210 model (increased life span); assay type: in vivo, mouse (BDF1); conditions: L1210, single ip dose on Day 1, increased life span
Procedure: (§3) There were five mice per group and fifteen mice were used as untreated controls (given 1 ml of 0.9% NaCl solution). The result was expressed as "increased life span".

in vivo [6] = conditions: rat
Procedure: Rats were anesthetized with ketamine HCl (90 mg/kg and acetopromazine maleate (2.2 mg/kg, injected intramuscularly) and mounted in a conventional stereotaxic frame. Using a No. 15 blade, a midline cutaneous incision approximately 1 cm in length was made from the occipital crest to just behind the ears. The muscle ligament along the occipital crest at the skull was detached with a scalpel for 4 mm on either side of the midline. Using both the sharp and blunt ends of a periosteal elevator, the muscle from the occipital bone was freed down to the atlanto-occipital membrane. A retractor was placed in the incision to draw the muscle aside and obtain a clear view of the atlanto-occipital membrane. […] The needle was withdrawn, the skin was sutured with 3-0 silk, and the animal was given 10 ml lactated Ringer'solution subcutaneously for hydration.
At appropriate time points after injection, the atlanto-occipital membrane was again exposed under anesthesia and a sample of cerebrospinal fluid ranging from 30 to 60 μl was obtained through a 19-gauge needle. […] The cerebrospinal fluid samples were then kept frozen at -20° C. until analyzed using a high-performanceliquid chromatography (HPLC) system as described below.
After cerebrospinal fluid sampling, the animals were sacrificed with an overdose of ketamine (90 mg/kg) and acetopromazine (20 mg/kg), injected intraperitoneally. Blood samples were obtained via cardiac puncture and thorough exsanguination was performed. […] The calvarium was then exposed and carefully removed with a bone rongeur. The entire content of the cranial compartment was collected by scooping out the exposed brain with a spatula and washing the cranial vault thoroughly with distilled water. The spinal compartment content was then collected separately; the spinal cord was extruded forward into the cranial vault by pushing distilled water rapidly through a 19-gauge needle inserted into the lower lumbar spinal canal at a point 2.5 cm rostral to the origin of the tail. […] The cranial compartment samples were analyzed separately from the spinal canal samples. Both tissue samples were homogenized with water using a Polytron homogenizer.
The homogenized samples of brain or spinal cord were analyzed with HPLC after extraction as described by Alkayal et al. Ther. Drug Monit. 12:191 (1990). Briefly, in a glass centrifuge tube, a 500 μl aliquot of homogenate, 100 μl of theophylline aqueous solution (internal standard, 2.0 mg/ml), 250 μl trichloroacetic acid solution (10% in water), and 250 μl glacial acetic acid were placed and mixed. […] Ethyl acetate organic phase was decanted and evaporated under nitrogen at 60° C. The extracted residue was dissolved in 200 μl of mobile phase and 100 μl of the resulting solution was injected into the HPLC.
The RSTRIP computer program (MicroMath Scientific Software, Salt Lake City, Utah) was used to perform the pharmacokinetics analysis.

[7] = Intraperitoneal pharmacokinetics in BDF1 mice; conditions: mouse, 10 mg/kg ip
Procedure: as §4, §5

[8] = estimated from studies in vitro; read-out: minimal cytotoxic concentration; cited from earlier work
in vivo [9] = conditions: mouse, sc
Procedure: as §1, §2

[10] = Toxicity and therapeutic index of single intraperitoneal dose; parameters: species or system mouse (BDF1); conditions: in vivo; mouse, single ip dose, probit transformation
Procedure: as §3
LD50 was calculated after probit transformation by PHARM/PCS program (MicroComputer Specialists, Philadelphia, Pa.). […] The therapeutic index (TI) for single IP dosage was calculated by the equation: […]

in vivo [11] = conditions: mouse, sc, 10 mg/kg
Procedure: as §6, §7

Structure (SMILES): CN(Cc1cnc2nc(N)nc(N)c2n1)c1ccc(C(=O)N[C@@H](CCC(=O)O)C(=O)O)cc1 [unencapsulated methotrexate, methotrexate]
- AUC(0-inf) (in vivo [1]; peritoneal fluid): 233 µM·h
- Cmax (in vivo [1]; peritoneal fluid): 430 ± 13 µM
- half-life (in vivo [1]; peritoneal fluid): 32.4 min
- AUC(0-inf) (in vivo [1]; plasma): 11.2 µM·h
- half-life (in vivo [1]; plasma): 54 min
- absorption after im or sc administration (in words) ([2]; im or sc): much more predictable and complete
- serum concentrations after im or sc versus oral dose (in words) ([2]; im or sc): higher serum concentrations than after an oral dose
- absorption rate after oral administration (in words) ([2]; patients, oral): highly variable among patients and appears to be saturable
- maximum efficacy (ILS max) (L1210 leukemia [3]): 183%
- Amount t1/2 (total amount of methotrexate in skin) ([4]; injection site): 9.6 min
- Conc. t1/2 (plasma half-life) ([4]; plasma): 31.8 min
- maximum efficacy (ILS max) (L1210 leukemia [5]): 100%
- Amount t1/2 (total amount of drug within CNS) (in vivo [6]): 43 min
- concentration at 4 h (in vivo [6]): 0.11 ± 0.02 µM
- half-life (in vivo [6]; Amount t1/2 (total amount of drug within CNS)): 43.2 min
- half-life (in vivo [6]; Conc. t1/2 α (initial half-life, CSF)): 34.6 min
- half-life (in vivo [6]; Conc. t1/2 β (terminal half-life, CSF)): 432 min
- Peritoneal Amount t1/2 ([7]; total amount for MVL-CD-MTX): 27 min
- Peritoneal Conc. t1/2 ([7]; unencapsulated drug or complex, or free methotrexate after MVL-CD-MTX): 32.4 min
- MCC [8]: 500 nM
- LD50 (in vivo [9]): 2650 mg/kg
- LD50 [10]: 2760 mg/kg
- AUC(0-inf) (in vivo [11]; plasma): 17.3 µM·h
- Cmax (in vivo [11]; plasma): 17.4 ± 5.2 µM
- Tmax (in vivo [11]; plasma): 15 min
- half-life (in vivo [11]; plasma): 31.8 min
- half-life (in vivo [11]; skin at injection site): 9.6 min
